Test results published in the supplement of paper PMC11451515.

Legend:
Settings in all cases: 48 h
P12-Ichikawa [1] = test: AUC of viability dose-response curve (% viability x log10 dose units); higher = less sensitive
How it was run: (§1)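 Library compounds in DMSO were applied for 48 h at 37°C at 11 threefold doses (47 μM to 0.79 nM) to medium-adapted leukemia cells in 1536-well plates holding 500 or 1000 cells/well. Luminescence from CellTiter-Glo One was normalised plate by plate against DMSO and cell-free wells. Area under the curve came from trapezoidal integration of a log-logistic fit, after scaling curves that rose above full viability and discarding those that failed quality control. The fit had four parameters and used log10 doses.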

SEM cells [2] = test: as above
How it was run: as §1

NOMO1 [3] = test: as above
How it was run: as §1

P12-Ichikawa [4] = test: cell viability relative to DMSO control; higher = less cytotoxic
How it was run: (§2)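 Viability values are per-plate percentages of DMSO wells, with background from cell-free wells. Library compounds in DMSO were pin-dosed, in an 11-point threefold series from 47 μM to 0.79 nM, onto NOMO1 or SEM (500 cells/well) or P12-Ichikawa (1000 cells/well) leukemia cells in 1536-well plates (5 μl). Those cells had been adapted for at least four passages in each medium, and CellTiter-Glo One luminescence was read after 48 h at 37°C.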

SEM cells [5] = test: as above
How it was run: as §2

NOMO1 [6] = test: as above
How it was run: as §2

CCNC(=O)[C@H]1O[C@@H](n2cnc3c(N)nc(NCCc4ccc(CCC(=O)O)cc4)nc32)[C@H](O)[C@@H]1O
AUC of viability dose-response curve
Settings	NOMO1 [3]	P12-Ichikawa [1]	SEM cells [2]
HPLM + 10% dialyzed FBS	458	465	470
RPMI 5 mM glucose + 10% FBS	437	456	421
RPMI 5 mM glucose + 10% dialyzed FBS	442	462	469

cell viability [%]
Settings	NOMO1 [6]	P12-Ichikawa [4]	SEM cells [5]
HPLM + 10% dialyzed FBS, 0.000781 µM	104	108	100
HPLM + 10% dialyzed FBS, 0.00234 µM	83.1	97.9	90.7
HPLM + 10% dialyzed FBS, 0.00702 µM	98.9	101	106
HPLM + 10% dialyzed FBS, 0.0211 µM	103	106	111
HPLM + 10% dialyzed FBS, 0.0632 µM	95.7	109	115
HPLM + 10% dialyzed FBS, 0.19 µM	104	101	107
HPLM + 10% dialyzed FBS, 0.569 µM	96.6	106	107
HPLM + 10% dialyzed FBS, 1.71 µM	95.6	103	110
HPLM + 10% dialyzed FBS, 5.12 µM	87.3	104	106
HPLM + 10% dialyzed FBS, 15.4 µM	96.6	96.8	104
HPLM + 10% dialyzed FBS, 46.1 µM	91	96.1	78.8
RPMI 5 mM glucose + 10% FBS, 0.000781 µM	104	105	83.6
RPMI 5 mM glucose + 10% FBS, 0.00234 µM	91.6	102	33.4
RPMI 5 mM glucose + 10% FBS, 0.00702 µM	94	96.2	91.4
RPMI 5 mM glucose + 10% FBS, 0.0211 µM	102	102	97.6
RPMI 5 mM glucose + 10% FBS, 0.0632 µM	89.4	102	103
RPMI 5 mM glucose + 10% FBS, 0.19 µM	89.3	97.5	108
RPMI 5 mM glucose + 10% FBS, 0.569 µM	86.9	99.9	110
RPMI 5 mM glucose + 10% FBS, 1.71 µM	90.6	99.6	88.1
RPMI 5 mM glucose + 10% FBS, 5.12 µM	89.9	96.4	92
RPMI 5 mM glucose + 10% FBS, 15.4 µM	90.8	93.3	89.6
RPMI 5 mM glucose + 10% FBS, 46.1 µM	84.1	92.2	62.3
RPMI 5 mM glucose + 10% dialyzed FBS, 0.000781 µM	89.3	106	88.3
RPMI 5 mM glucose + 10% dialyzed FBS, 0.00234 µM	104	98.9	84.3
RPMI 5 mM glucose + 10% dialyzed FBS, 0.00702 µM	100	107	101
RPMI 5 mM glucose + 10% dialyzed FBS, 0.0211 µM	93.5	99.8	102
RPMI 5 mM glucose + 10% dialyzed FBS, 0.0632 µM	92.3	105	116
RPMI 5 mM glucose + 10% dialyzed FBS, 0.19 µM	90.8	97.2	116
RPMI 5 mM glucose + 10% dialyzed FBS, 0.569 µM	96.9	108	117
RPMI 5 mM glucose + 10% dialyzed FBS, 1.71 µM	88.7	91.3	96.3
RPMI 5 mM glucose + 10% dialyzed FBS, 5.12 µM	94.5	101	109
RPMI 5 mM glucose + 10% dialyzed FBS, 15.4 µM	78.8	95.9	99
RPMI 5 mM glucose + 10% dialyzed FBS, 46.1 µM	87.8	93.3	74.8

CC[C@@]1([C@@H]2O[C@@H]([C@H]3O[C@@](O)(CO)[C@H](C)C[C@@H]3C)C[C@@H]2C)CC[C@H]([C@]2(C)CC[C@]3(C[C@H](O)[C@@H](C)[C@@H]([C@@H](C)[C@@H](OC)[C@H](C)C(=O)[O-])O3)O2)O1
AUC of viability dose-response curve
Settings	NOMO1 [3]	P12-Ichikawa [1]	SEM cells [2]
HPLM + 10% dialyzed FBS	381	375	336
RPMI 5 mM glucose + 10% FBS	409	350	324
RPMI 5 mM glucose + 10% dialyzed FBS	393	340	343

CCCCC[C@H](O)/C=C/[C@H]1[C@H](O)CC(=O)[C@@H]1C/C=C\CCCC(=O)O
AUC of viability dose-response curve
Settings	NOMO1 [3]	P12-Ichikawa [1]	SEM cells [2]
HPLM + 10% dialyzed FBS	449	460	456
RPMI 5 mM glucose + 10% FBS	453	457	458
RPMI 5 mM glucose + 10% dialyzed FBS	440	457	460

COC(=O)/C=C/C(=O)OC
AUC of viability dose-response curve
Settings	NOMO1 [3]	P12-Ichikawa [1]	SEM cells [2]
HPLM + 10% dialyzed FBS	433	323	406
RPMI 5 mM glucose + 10% FBS	402	368	354
RPMI 5 mM glucose + 10% dialyzed FBS	413	352	376

SEM cells [5], HPLM + 10% dialyzed FBS
Settings	cell viability [%]
0.000781 µM	118
0.00234 µM	126
0.00702 µM	106
0.0211 µM	119
0.0632 µM	135
0.19 µM	135
0.569 µM	126
1.71 µM	124
5.12 µM	60
15.4 µM	43.8
46.1 µM	43.3

CC(=O)OC\C1=C(\[N@]2[C@@H](SC1)[C@H](N)C2=O)C(O)=O
AUC of viability dose-response curve
Settings	NOMO1 [3]	P12-Ichikawa [1]	SEM cells [2]
HPLM + 10% dialyzed FBS	330	346	462
RPMI 5 mM glucose + 10% FBS	306	348	473
RPMI 5 mM glucose + 10% dialyzed FBS	324	370	470

SEM cells [5], HPLM + 10% dialyzed FBS
Settings	cell viability [%]
0.000781 µM	104
0.00234 µM	111
0.00702 µM	119
0.0211 µM	120
0.0632 µM	123
0.19 µM	141
0.569 µM	129
1.71 µM	138
5.12 µM	125
15.4 µM	126
46.1 µM	97.1

Cc1c(C(=O)Nc2cccc(C(F)(F)F)c2)cc(-c2ccccc2)n1CCCN1CCOCC1
AUC of viability dose-response curve
Settings	NOMO1 [3]	P12-Ichikawa [1]	SEM cells [2]
HPLM + 10% dialyzed FBS	458	438	454
RPMI 5 mM glucose + 10% FBS	446	449	458
RPMI 5 mM glucose + 10% dialyzed FBS	460	454	446

cell viability [%]
Settings	NOMO1 [6]	P12-Ichikawa [4]	SEM cells [5]
HPLM + 10% dialyzed FBS, 0.000781 µM	104	116	99.2
HPLM + 10% dialyzed FBS, 0.00234 µM	99.5	112	112
HPLM + 10% dialyzed FBS, 0.00702 µM	112	113	106
HPLM + 10% dialyzed FBS, 0.0211 µM	109	112	105
HPLM + 10% dialyzed FBS, 0.0632 µM	97.2	106	111
HPLM + 10% dialyzed FBS, 0.19 µM	113	106	96.3
HPLM + 10% dialyzed FBS, 0.569 µM	129	104	111
HPLM + 10% dialyzed FBS, 1.71 µM	116	99.2	99.5
HPLM + 10% dialyzed FBS, 5.12 µM	105	104	90.3
HPLM + 10% dialyzed FBS, 15.4 µM	95.9	91.7	93.6
HPLM + 10% dialyzed FBS, 46.1 µM	82.5	79.7	62.8
RPMI 5 mM glucose + 10% FBS, 0.000781 µM	107	111	89.6
RPMI 5 mM glucose + 10% FBS, 0.00234 µM	105	109	106
RPMI 5 mM glucose + 10% FBS, 0.00702 µM	111	115	119
RPMI 5 mM glucose + 10% FBS, 0.0211 µM	100	105	116
RPMI 5 mM glucose + 10% FBS, 0.0632 µM	102	113	110
RPMI 5 mM glucose + 10% FBS, 0.19 µM	101	119	101
RPMI 5 mM glucose + 10% FBS, 0.569 µM	96.5	108	122
RPMI 5 mM glucose + 10% FBS, 1.71 µM	92.4	108	101
RPMI 5 mM glucose + 10% FBS, 5.12 µM	91.7	97.1	115
RPMI 5 mM glucose + 10% FBS, 15.4 µM	96.4	88	93.6
RPMI 5 mM glucose + 10% FBS, 46.1 µM	95.2	70.3	50.9
RPMI 5 mM glucose + 10% dialyzed FBS, 0.000781 µM	115	105	104
RPMI 5 mM glucose + 10% dialyzed FBS, 0.00234 µM	107	117	111
RPMI 5 mM glucose + 10% dialyzed FBS, 0.00702 µM	111	114	121
RPMI 5 mM glucose + 10% dialyzed FBS, 0.0211 µM	109	114	113
RPMI 5 mM glucose + 10% dialyzed FBS, 0.0632 µM	108	114	121
RPMI 5 mM glucose + 10% dialyzed FBS, 0.19 µM	117	107	115
RPMI 5 mM glucose + 10% dialyzed FBS, 0.569 µM	111	106	109
RPMI 5 mM glucose + 10% dialyzed FBS, 1.71 µM	111	103	109
RPMI 5 mM glucose + 10% dialyzed FBS, 5.12 µM	109	103	95
RPMI 5 mM glucose + 10% dialyzed FBS, 15.4 µM	91.4	94	92.6
RPMI 5 mM glucose + 10% dialyzed FBS, 46.1 µM	73.3	74.1	45.8
